{"source": "patent US11484539B2", "about": "“Compounds and their uses for alleviating menopause-associated symptoms” (Estetra SPRL, priority 2018, dated 2022)", "tested_on": "post-menopausal women", "assay": "Weekly severity of moderate to severe VMS, dose-finding study", "format": "in vivo", "text": "To determine the Minimum Effective Dose (MED), firstly the selection criteria required that patients presented at least 7 moderate to severe VMS/day or at least 50 moderate to severe VMS/week in the week preceding randomization. Secondly, a placebo group was included in a double-blind fashion. Thirdly, the total patient number was such that statistical significance could be obtained between separate arms of the study. Fourthly, the absolute change from baseline in weekly frequency of moderate to severe VMS was taken into account. An analysis of covariance (ANCOVA) was performed based on the untransformed change in weekly frequency of moderate to severe VMS from baseline. Finally, the change in severity from baseline was evaluated. For this, the Severity Scoring System of VMS was documented by the subjects as follows: • a score of Mild (1) for a sensation of heat without sweating; • a score of Moderate (2) for a sensation of heat with sweating/the subject is able to continue activity; and • a score of Severe (3) for a sensation of heat with sweating/which causes cessation of activity.\nIn addition, a severity score of zero was attributed to the patients who have experienced a 100% VMS relief during a given week.\nFrom these score records, the severity at baseline was calculated by taking into account only moderate and severe VMS, such that the total number of moderate VMS during the 7 days of the baseline week was multiplied by 2 and added to the total number of severe VMS during the 7 days of the baseline week multiplied by 3. This total was then divided by the total number of moderate and severe VMS during the baseline week.\nThe severity at weeks 4 and 12 was calculated using the following formula for each of these weeks: • the number of mild VMS during 7 days multiplied by 1; • the number of moderate VMS during 7 days multiplied by 2; • the number of severe VMS during 7 days multiplied by 3. and adding the 3 resulting numbers together before dividing this total by the total number of mild, moderate and severe VMS during the 7 days of the week.\nThis method was used to generate the data included in Example 1 further below, under section A. b) “VMS Severity”.\nIn order to better analyse the data recorded in this study, treatment groups have been compared using an ANCOVA (analysis of covariance) with respect to the change in severity of moderate to severe VMS from baseline to mild, moderate and severe VMS at week 4 and week 12 for each active treatment versus placebo. For women who experienced 100% VMS relief at week 4 and/or week 12, a value of zero was attributed. The ANCOVA model includes treatment (“trt1”) as a fixed effect and baseline (“base”) as a covariate. • b) Covariate significance"}
{"smiles": "C[C@]12CC[C@@H]3c4ccc(O)cc4CC[C@H]3[C@@H]1[C@@H](O)[C@@H](O)[C@@H]2O", "note": "[E4, 1,3,5 (10)-estratrien-3,15alpha,16alpha,17beta-tetrol]", "values": [{"measurement": "Difference with placebo, LS adjusted mean, relative change in weekly severity of moderate to severe VMS", "setting": "5 mg E4 vs placebo, week 12", "result": 0.1149}, {"measurement": "LS adjusted mean change from baseline in weekly severity of moderate to severe VMS", "setting": "10 mg E4, week 4", "result": "−0.4825"}, {"measurement": "LS adjusted mean relative change from baseline in weekly severity of moderate to severe VMS", "setting": "10 mg E4, week 4", "result": "−0.2016"}, {"measurement": "LS adjusted mean relative change from baseline in weekly severity of moderate to severe VMS", "setting": "10 mg E4, week 12", "result": "−0.2862"}, {"measurement": "Mean change from baseline in weekly severity of moderate to severe VMS", "setting": "10 mg E4 QD per os, week 1", "result": "−0.2028"}, {"measurement": "Relative change (% from baseline) in weekly severity of moderate to severe VMS, mean", "setting": "10 mg E4 QD per os, week 1", "result": "−8", "unit": "%"}, {"measurement": "Mean change from baseline in weekly severity of moderate to severe VMS", "setting": "10 mg E4 QD per os, week 2", "result": "−0.3007"}, {"measurement": "Relative change (% from baseline) in weekly severity of moderate to severe VMS, mean", "setting": "10 mg E4 QD per os, week 2", "result": "−13", "unit": "%"}, {"measurement": "Mean change from baseline in weekly severity of moderate to severe VMS", "setting": "10 mg E4 QD per os, week 3", "result": "−0.3983"}, {"measurement": "Relative change (% from baseline) in weekly severity of moderate to severe VMS, mean", "setting": "10 mg E4 QD per os, week 3", "result": "−17", "unit": "%"}, {"measurement": "Mean change from baseline in weekly severity of moderate to severe VMS", "setting": "10 mg E4 QD per os, week 4", "result": "−0.4842"}, {"measurement": "Relative change (% from baseline) in weekly severity of moderate to severe VMS, mean", "setting": "10 mg E4 QD per os, week 4", "result": "−20", "unit": "%"}, {"measurement": "Mean change from baseline in weekly severity of moderate to severe VMS", "setting": "10 mg E4 QD per os, week 5", "result": "−0.5107"}, {"measurement": "Relative change (% from baseline) in weekly severity of moderate to severe VMS, mean", "setting": "10 mg E4 QD per os, week 5", "result": "−21", "unit": "%"}, {"measurement": "Mean change from baseline in weekly severity of moderate to severe VMS", "setting": "10 mg E4 QD per os, week 6", "result": "−0.6086"}, {"measurement": "Relative change (% from baseline) in weekly severity of moderate to severe VMS, mean", "setting": "10 mg E4 QD per os, week 6", "result": "−26", "unit": "%"}, {"measurement": "Mean change from baseline in weekly severity of moderate to severe VMS", "setting": "10 mg E4 QD per os, week 7", "result": "−0.643"}, {"measurement": "Relative change (% from baseline) in weekly severity of moderate to severe VMS, mean", "setting": "10 mg E4 QD per os, week 7", "result": "−27", "unit": "%"}, {"measurement": "Mean change from baseline in weekly severity of moderate to severe VMS", "setting": "10 mg E4 QD per os, week 8", "result": "−0.6644"}, {"measurement": "Relative change (% from baseline) in weekly severity of moderate to severe VMS, mean", "setting": "10 mg E4 QD per os, week 8", "result": "−28", "unit": "%"}, {"measurement": "Mean change from baseline in weekly severity of moderate to severe VMS", "setting": "10 mg E4 QD per os, week 9", "result": "−0.6864"}, {"measurement": "Relative change (% from baseline) in weekly severity of moderate to severe VMS, mean", "setting": "10 mg E4 QD per os, week 9", "result": "−28", "unit": "%"}, {"measurement": "Mean change from baseline in weekly severity of moderate to severe VMS", "setting": "10 mg E4 QD per os, week 10", "result": "−0.709"}, {"measurement": "Relative change (% from baseline) in weekly severity of moderate to severe VMS, mean", "setting": "10 mg E4 QD per os, week 10", "result": "−29", "unit": "%"}, {"measurement": "Mean change from baseline in weekly severity of moderate to severe VMS", "setting": "10 mg E4 QD per os, week 11", "result": "−0.666"}, {"measurement": "Relative change (% from baseline) in weekly severity of moderate to severe VMS, mean", "setting": "10 mg E4 QD per os, week 11", "result": "−25", "unit": "%"}, {"measurement": "Mean change from baseline in weekly severity of moderate to severe VMS", "setting": "10 mg E4 QD per os, week 12", "result": "−0.6941"}, {"measurement": "Relative change (% from baseline) in weekly severity of moderate to severe VMS, mean", "setting": "10 mg E4 QD per os, week 12", "result": "−28", "unit": "%"}, {"measurement": "Difference with placebo, LS adjusted mean, absolute change in weekly severity of moderate to severe VMS", "setting": "10 mg E4 vs placebo, week 4", "result": "−0.1547"}, {"measurement": "Difference with placebo, LS adjusted mean, relative change in weekly severity of moderate to severe VMS", "setting": "10 mg E4 vs placebo, week 4", "result": "−0.06058"}, {"measurement": "Difference with placebo, LS adjusted mean, absolute change in weekly severity of moderate to severe VMS", "setting": "10 mg E4 vs placebo, week 12", "result": "−0.03512"}, {"measurement": "Difference with placebo, LS adjusted mean, relative change in weekly severity of moderate to severe VMS", "setting": "10 mg E4 vs placebo, week 12", "result": "−0.006415"}, {"measurement": "LS adjusted mean change from baseline in weekly severity of moderate to severe VMS", "setting": "15 mg E4, week 4", "result": "−0.5888"}, {"measurement": "LS adjusted mean relative change from baseline in weekly severity of moderate to severe VMS", "setting": "15 mg E4, week 4", "result": "−0.2427"}, {"measurement": "LS adjusted mean relative change from baseline in weekly severity of moderate to severe VMS", "setting": "15 mg E4, week 12", "result": "−0.4375"}, {"measurement": "Mean change from baseline in weekly severity of moderate to severe VMS", "setting": "15 mg E4 QD per os, week 1", "result": "−0.072"}, {"measurement": "Relative change (% from baseline) in weekly severity of moderate to severe VMS, mean", "setting": "15 mg E4 QD per os, week 1", "result": "−3", "unit": "%"}, {"measurement": "Mean change from baseline in weekly severity of moderate to severe VMS", "setting": "15 mg E4 QD per os, week 2", "result": "−0.2853"}, {"measurement": "Relative change (% from baseline) in weekly severity of moderate to severe VMS, mean", "setting": "15 mg E4 QD per os, week 2", "result": "−12", "unit": "%"}, {"measurement": "Mean change from baseline in weekly severity of moderate to severe VMS", "setting": "15 mg E4 QD per os, week 3", "result": "−0.4842"}, {"measurement": "Relative change (% from baseline) in weekly severity of moderate to severe VMS, mean", "setting": "15 mg E4 QD per os, week 3", "result": "−20", "unit": "%"}, {"measurement": "Mean change from baseline in weekly severity of moderate to severe VMS", "setting": "15 mg E4 QD per os, week 4", "result": "−0.5897"}, {"measurement": "Relative change (% from baseline) in weekly severity of moderate to severe VMS, mean", "setting": "15 mg E4 QD per os, week 4", "result": "−24", "unit": "%"}, {"measurement": "Mean change from baseline in weekly severity of moderate to severe VMS", "setting": "15 mg E4 QD per os, week 5", "result": "−0.7432"}, {"measurement": "Relative change (% from baseline) in weekly severity of moderate to severe VMS, mean", "setting": "15 mg E4 QD per os, week 5", "result": "−31", "unit": "%"}, {"measurement": "Mean change from baseline in weekly severity of moderate to severe VMS", "setting": "15 mg E4 QD per os, week 6", "result": "−0.7035"}, {"measurement": "Relative change (% from baseline) in weekly severity of moderate to severe VMS, mean", "setting": "15 mg E4 QD per os, week 6", "result": "−30", "unit": "%"}, {"measurement": "Mean change from baseline in weekly severity of moderate to severe VMS", "setting": "15 mg E4 QD per os, week 7", "result": "−0.8112"}, {"measurement": "Relative change (% from baseline) in weekly severity of moderate to severe VMS, mean", "setting": "15 mg E4 QD per os, week 7", "result": "−34", "unit": "%"}, {"measurement": "Mean change from baseline in weekly severity of moderate to severe VMS", "setting": "15 mg E4 QD per os, week 8", "result": "−0.8854"}, {"measurement": "Relative change (% from baseline) in weekly severity of moderate to severe VMS, mean", "setting": "15 mg E4 QD per os, week 8", "result": "−37", "unit": "%"}, {"measurement": "Mean change from baseline in weekly severity of moderate to severe VMS", "setting": "15 mg E4 QD per os, week 9", "result": "−0.9092"}, {"measurement": "Relative change (% from baseline) in weekly severity of moderate to severe VMS, mean", "setting": "15 mg E4 QD per os, week 9", "result": "−38", "unit": "%"}, {"measurement": "Mean change from baseline in weekly severity of moderate to severe VMS", "setting": "15 mg E4 QD per os, week 10", "result": "−0.9628"}, {"measurement": "Relative change (% from baseline) in weekly severity of moderate to severe VMS, mean", "setting": "15 mg E4 QD per os, week 10", "result": "−40", "unit": "%"}, {"measurement": "Mean change from baseline in weekly severity of moderate to severe VMS", "setting": "15 mg E4 QD per os, week 11", "result": "−1.0123"}, {"measurement": "Relative change (% from baseline) in weekly severity of moderate to severe VMS, mean", "setting": "15 mg E4 QD per os, week 11", "result": "−42", "unit": "%"}, {"measurement": "Mean change from baseline in weekly severity of moderate to severe VMS", "setting": "15 mg E4 QD per os, week 12", "result": "−1.0425"}, {"measurement": "Relative change (% from baseline) in weekly severity of moderate to severe VMS, mean", "setting": "15 mg E4 QD per os, week 12", "result": "−44", "unit": "%"}, {"measurement": "Difference with placebo, LS adjusted mean, absolute change in weekly severity of moderate to severe VMS", "setting": "15 mg E4 vs placebo, week 4", "result": "−0.261"}, {"measurement": "Difference with placebo, LS adjusted mean, relative change in weekly severity of moderate to severe VMS", "setting": "15 mg E4 vs placebo, week 4", "result": "−0.1017"}, {"measurement": "Difference with placebo, LS adjusted mean, absolute change in weekly severity of moderate to severe VMS", "setting": "15 mg E4 vs placebo, week 12", "result": "−0.3838"}, {"measurement": "Difference with placebo, LS adjusted mean, relative change in weekly severity of moderate to severe VMS", "setting": "15 mg E4 vs placebo, week 12", "result": "−0.1577"}, {"measurement": "Reduction in the severity of moderate to severe VMS when compared to baseline", "setting": "15 mg daily dose", "result": "over 40%"}]}
